Measurements reported in article PMC12286057, “An Investigation of 5-Halogenated N-Indolylsulfonyl-2-fluorophenol Derivatives as Aldose Reductase Inhibitors” (Medicines, 2025).

Tests used:
[1] = target: T1, partially purified ALR2 from rat lenses (Rattus norvegicus, UniProt P07943); assay: ALR2 enzymatic assay (NADPH consumption, DL-glyceraldehyde substrate); type: biochemical; conditions: for inhibition at 10 µM: cut-off concentration of 10 μM; for IC50: partially purified ALR2 from rat lenses, 0.1–10 μM concentrations; for fold activity loss compared to lead compound IIc: IC50 ratio versus IIc, rat ALR2 enzyme; for fold less strong ARI than sorbinil and epalrestat: IC50 ratio versus the reference drugs sorbinil and epalrestat
T1 construct: Supernatant containing the partially purified ALR2 enzyme was used directly or stored at −80 °C for less than 24 h; from tissue; host or cells: eye lenses of Fischer-344 rats (homogenate supernatant after 40% ammonium sulfate precipitation)
Description: The ALR2 enzyme was isolated from rat lenses of the Fischer-344 series. Laboratory animal handling and experiment conduct was carried out in accordance with the Law on the Protection of Laboratory Animals (Hellenic Republic) and was declared to the Veterinary Authority of the Republic of Greece. The animal study protocol was approved by the Ethics Committee of the Prefecture of Central Macedonia (protocol code 270079/2500) for studies involving animals.
Eye lenses were quickly removed from Fischer-344 rats following euthanasia. The enzyme was partially purified by a well-established and previously reported procedure. The lenses were removed from euthanized rats and were quickly stored at −80 °C until used. Great care was taken to clean the lenses mechanically from other ocular tissues and debris. The lenses were homogenized in 5 vol of cold ultrapure water (0.5 mL per lens), and the homogenate was centrifuged at 10,000 × rpm at 0–4 °C for 15 min. The supernatant was then collected, precipitated with a saturated solution of ammonium sulfate (40% saturation), and centrifuged at 10,000 × rpm at 0–4 °C for 15 min. Supernatant containing the partially purified ALR2 enzyme was used directly or stored at −80 °C for less than 24 h.
ALR2 activity was assayed spectrophotometrically by determining NADPH consumption (ε340nm = 6300 M^−1 × cm^−1). The examined compounds were dissolved in DMSO (1% final concentration) at appropriate final concentrations (0.1–10 μM). The effects of the compounds on enzyme activity were determined by including the inhibitor in the reaction mixture at required concentrations. At the same concentration, the inhibitor was included in the reference blank. The reference blank contained all the following reagents except the substrate to correct NADPH oxidation, which is not associated with the substrate’s reduction. Briefly, 2.4 mL of 66.7 mM phosphate Na^+/K^+ assay buffer (pH = 6.2), 100 μL of 3.2 mM NADPH solution in assay buffer, 300 μL of enzyme supernatant, 90 μL of ultrapure water, and 10 μL of solution of tested inhibitors in DMSO in appropriate concentration or pure DMSO (served as control) were mixed in that order in a glass vial. Subsequently, 1 mL of that mixture was transferred to each 1.5 mL-UV quartz cuvette (10 mm path length), and 100 μL of assay buffer (reference blank) or 110 mM DL-glyceraldehyde solution (10 mM final concentration) in assay buffer was added to initiate the enzyme reaction. ALR2 activity was assayed by monitoring NADPH consumption (0.1 mM final concentration) at 340 nm for 5 min after incubating reaction mixtures for 1 min at 30 °C. […] IC50 values were determined by least-squares regression analysis of the semi-logarithmic dose–inhibition curves. Each curve was generated using at least five compounds’ concentrations, causing inhibition from at least 15–80% in at least three triplicate repetitions.

ALR2 = system: ALR2; set-up: method as in Mylari et al. [49]; conditions: preclinical studies; ref Mylari et al. [49]; cited from earlier work
[2] = set-up: method as in Mylari et al. [49]; conditions: ref Mylari et al. [49], cited from earlier work
Caco-2 = system: Caco-2; set-up: method as in Mylari et al. [49]; conditions: ref Mylari et al. [49]; cited from earlier work
diabetic rats = system: diabetic rats; set-up: method as in Mylari et al. [49]; conditions: lens, retina and sciatic nerve of diabetic rats; ref Mylari et al. [49]; cited from earlier work

Row | Structure (SMILES) | inhibition at 10 µM [1] | ALR2 inhibitory activity at 1 μM ([1]; lower dose of 1 μM) | IC50 [1] | fold activity loss compared to lead compound IIc [1] | fold less strong ARI than sorbinil and epalrestat [1] | IC50 (ALR2) | oral bioavailability ([2]; at 2 mg/kg) | plasma half-life ([2]; preclinical studies) | Caco-2 transcellular permeability (Caco-2) | in vivo normalization of elevated sorbitol and fructose (diabetic rats)
1 | Oc1ccc(-n2ccc3cc(Cl)ccc32)cc1F [Compound 3d, 4-(5-chloro-1H-indol-1-yl)-2-fluorophenol] | 43.7 ± 1.3% | completely inactive | > 10000 nM | – | – | – | – | – | – | –
2 | Cc1c(S(=O)(=O)c2ccc(=O)[nH]n2)oc2ccc(Cl)cc12 [CP-744809, 6-(5-chloro-3-methylbenzofuran-2-sulfonyl)-2H-pyridazin-3-one] | – | – | – | – | – | 0.84 nM | 98% | 23 to 29 h | > 10^−5 cm/s | remarkable efficiency in vivo in normalizing elevated sorbitol and fructose

The next lines start with results.

Row | inhibition at 10 µM [1] | ALR2 inhibitory activity at 1 μM ([1]; lower dose of 1 μM) | IC50 [1] | fold activity loss compared to lead compound IIc [1] | fold less strong ARI than sorbinil and epalrestat [1] | Structure (SMILES) | IC50 (ALR2) | oral bioavailability ([2]; at 2 mg/kg) | plasma half-life ([2]; preclinical studies) | Caco-2 transcellular permeability (Caco-2) | in vivo normalization of elevated sorbitol and fructose (diabetic rats)
3 | 77.6 ± 1.3% | – | 2220 ± 280 nM | 2.3 fold | 9 fold | O=S(=O)(c1ccc(O)c(F)c1)n1ccc2cc(Cl)ccc21 [Compound 3b, 4-((5-chloro-1H-indol-1-yl)sulfonyl)-2-fluorophenol] | – | – | – | – | –
4 | 74.5 ± 2.6% | – | 3020 ± 450 nM | 3.1 fold | 12 fold | O=S(=O)(c1ccc(O)c(F)c1)n1ccc2cc(F)ccc21 [Compound 3a, 4-((5-fluoro-1H-indol-1-yl)sulfonyl)-2-fluorophenol] | – | – | – | – | –
5 | 80.6 ± 2% | – | 1850 ± 150 nM | 1.9 fold | 7.4 fold | O=S(=O)(c1ccc(O)c(F)c1)n1ccc2cc(Br)ccc21 [Compound 3c, 4-((5-bromo-1H-indol-1-yl)sulfonyl)-2-fluorophenol] | – | – | – | – | –
